Key:
[1] = tested on: rNsp5^WT recombinant SARS-CoV-2; assay: microbe, parasite or virus in culture; assay type: cell-based; settings: Severe acute respiratory syndrome coronavirus 2
[2] = tested on: triple mutant L50F/E166A/L167F; settings: cited from earlier work
[3] = tested on: triple mutant L50F/E166A/L167F; settings: cited from earlier work; remark: listed apart in the source

## CC(C)(C)[C@H](NC(=O)C(F)(F)F)C(=O)N1C[C@H]2[C@@H]([C@H]1C(=O)N[C@H](C#N)C[C@@H]1CCNC1=O)C2(C)C [nirmatrelvir]
[1]
  EC50: 25.5 nM
[2]
  IC50 increase in the enzymatic assay: 72 fold
[3]
  EC50 increase in the antiviral assay: 51 fold

— publication PMC10451032 (ACS Central Science, 2023)
